The values below are quoted from earlier work in publication PMC4610388 (European journal of medicinal chemistry, 2015).

The subject of series [1] is mammalian dihydrofolate reductases.
The target in the next series is E. coli DHFR (Escherichia coli, UniProt P0ABQ4). To be noted: previous study from the authors' lab.
E. coli DHFR, sequence (P0ABQ4 whole entry): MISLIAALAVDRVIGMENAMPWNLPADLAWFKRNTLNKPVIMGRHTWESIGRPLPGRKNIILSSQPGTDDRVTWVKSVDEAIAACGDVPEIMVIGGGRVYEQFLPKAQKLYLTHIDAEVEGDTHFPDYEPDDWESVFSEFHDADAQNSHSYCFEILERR

In the case of `Nc1nnc(-c2cccc(Cl)c2Cl)c(N)n1` [Lamotrigine, 6-(2,3-dichlorophenyl)-1,2,4-triazine-3,5-diamine], the “inhibition of mammalian dihydrofolate reductases” value in series [1] was “weakly inhibit”.

Regarding `Nc1nc(N)c2c(ccc3[nH]ccc32)n1` [NSC339578, 7H–pyrrolo [3,2-f] quinazoline-1,3-diamine], the “slow-onset tight binding behaviour” value on E. coli DHFR is reported as “does not show slow-onset of inhibition”.
